Our source for the IC50 values is ChEMBL document CHEMBL2331389, “Structure-based discovery of cellular-active allosteric inhibitors of FAK” (Bioorg Med Chem Lett, 2013).

pIC50: −log10 of the molar value. Bounds are passed on as bounds.

In assay [1] the target is T1, Focal adhesion kinase 1 (Homo sapiens, UniProt Q05397).
The target in assay [2] is RAC-alpha serine/threonine-protein kinase (Homo sapiens, UniProt P31749). In words: Inhibition of Akt1 (unknown origin).
Assay [3] addresses Protein-tyrosine kinase 2-beta (Homo sapiens, UniProt Q14289). Kind of assay: Inhibition of Pyk2 (unknown origin).
Assay [4] has as its target Proto-oncogene tyrosine-protein kinase Src (Homo sapiens, UniProt P12931). Kind of assay: Inhibition of Src (unknown origin).
Assay [5] concerns the target Dual specificity mitogen-activated protein kinase kinase 1 (Homo sapiens, UniProt Q02750). In words: Inhibition of MEK1 (unknown origin).
Assay [6] has as its target Receptor tyrosine-protein kinase erbB-2 (Homo sapiens, UniProt P04626). In words: Inhibition of HER2 (unknown origin).
Assay [7] addresses Aurora kinase B (Homo sapiens, UniProt Q96GD4). Kind of assay: Inhibition of aurora-B (unknown origin).
The target of assay [8] is Mitogen-activated protein kinase 14 (Homo sapiens, UniProt Q16539). In words: Inhibition of p38alpha (unknown origin).
Sequence of Mitogen-activated protein kinase 14 (Q16539 whole entry): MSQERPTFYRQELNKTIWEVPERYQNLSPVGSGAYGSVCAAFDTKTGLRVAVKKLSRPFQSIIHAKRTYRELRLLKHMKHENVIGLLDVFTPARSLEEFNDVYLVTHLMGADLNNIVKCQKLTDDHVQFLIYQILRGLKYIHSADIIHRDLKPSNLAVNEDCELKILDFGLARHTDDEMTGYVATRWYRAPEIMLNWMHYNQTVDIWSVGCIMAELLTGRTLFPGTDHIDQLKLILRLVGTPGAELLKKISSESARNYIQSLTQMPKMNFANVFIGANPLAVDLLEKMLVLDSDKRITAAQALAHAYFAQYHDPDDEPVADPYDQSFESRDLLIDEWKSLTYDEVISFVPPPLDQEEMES
In assay [9] the target is T1, Focal adhesion kinase 1. This is another data set of the same source.

Sequence of RAC-alpha serine/threonine-protein kinase (P31749 whole entry): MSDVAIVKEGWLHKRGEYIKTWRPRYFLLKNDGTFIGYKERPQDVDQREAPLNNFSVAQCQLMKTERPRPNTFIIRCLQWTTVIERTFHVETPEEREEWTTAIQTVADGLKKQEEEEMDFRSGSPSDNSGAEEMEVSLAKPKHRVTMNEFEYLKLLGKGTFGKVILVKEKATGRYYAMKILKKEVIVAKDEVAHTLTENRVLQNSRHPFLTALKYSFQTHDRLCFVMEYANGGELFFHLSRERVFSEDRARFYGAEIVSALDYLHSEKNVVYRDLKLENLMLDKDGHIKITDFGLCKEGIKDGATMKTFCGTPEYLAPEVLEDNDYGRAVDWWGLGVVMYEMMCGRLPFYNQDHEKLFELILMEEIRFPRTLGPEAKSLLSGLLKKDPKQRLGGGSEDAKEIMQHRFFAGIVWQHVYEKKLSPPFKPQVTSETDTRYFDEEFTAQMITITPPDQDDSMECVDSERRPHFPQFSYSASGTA
T1 sequence (Q05397 whole entry): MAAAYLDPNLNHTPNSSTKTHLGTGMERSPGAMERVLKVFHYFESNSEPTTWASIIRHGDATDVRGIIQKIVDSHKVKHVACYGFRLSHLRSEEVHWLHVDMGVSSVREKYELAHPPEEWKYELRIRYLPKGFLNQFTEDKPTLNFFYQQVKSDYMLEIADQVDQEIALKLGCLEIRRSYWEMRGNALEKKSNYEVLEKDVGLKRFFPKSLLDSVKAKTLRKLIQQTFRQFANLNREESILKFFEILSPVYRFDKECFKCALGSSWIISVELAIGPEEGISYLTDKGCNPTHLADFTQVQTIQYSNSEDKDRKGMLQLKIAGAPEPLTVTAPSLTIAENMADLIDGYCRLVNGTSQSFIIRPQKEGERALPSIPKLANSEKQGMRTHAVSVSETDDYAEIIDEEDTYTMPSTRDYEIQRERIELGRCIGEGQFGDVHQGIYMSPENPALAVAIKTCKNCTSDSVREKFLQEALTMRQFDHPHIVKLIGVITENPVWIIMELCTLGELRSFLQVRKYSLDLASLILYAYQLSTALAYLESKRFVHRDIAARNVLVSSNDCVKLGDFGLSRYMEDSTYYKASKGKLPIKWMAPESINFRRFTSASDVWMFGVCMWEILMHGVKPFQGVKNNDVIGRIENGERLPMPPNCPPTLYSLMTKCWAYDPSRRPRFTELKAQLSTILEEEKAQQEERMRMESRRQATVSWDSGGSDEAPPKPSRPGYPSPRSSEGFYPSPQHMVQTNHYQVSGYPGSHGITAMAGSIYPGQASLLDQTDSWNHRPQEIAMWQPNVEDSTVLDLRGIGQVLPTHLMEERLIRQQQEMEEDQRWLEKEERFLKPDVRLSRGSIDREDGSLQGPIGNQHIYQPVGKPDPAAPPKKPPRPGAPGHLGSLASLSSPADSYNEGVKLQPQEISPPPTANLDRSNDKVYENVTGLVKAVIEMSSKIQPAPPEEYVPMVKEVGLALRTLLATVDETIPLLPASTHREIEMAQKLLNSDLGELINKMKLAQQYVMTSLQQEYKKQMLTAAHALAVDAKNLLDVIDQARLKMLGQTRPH
Sequence of Proto-oncogene tyrosine-protein kinase Src (P12931 2-536 limits assumed): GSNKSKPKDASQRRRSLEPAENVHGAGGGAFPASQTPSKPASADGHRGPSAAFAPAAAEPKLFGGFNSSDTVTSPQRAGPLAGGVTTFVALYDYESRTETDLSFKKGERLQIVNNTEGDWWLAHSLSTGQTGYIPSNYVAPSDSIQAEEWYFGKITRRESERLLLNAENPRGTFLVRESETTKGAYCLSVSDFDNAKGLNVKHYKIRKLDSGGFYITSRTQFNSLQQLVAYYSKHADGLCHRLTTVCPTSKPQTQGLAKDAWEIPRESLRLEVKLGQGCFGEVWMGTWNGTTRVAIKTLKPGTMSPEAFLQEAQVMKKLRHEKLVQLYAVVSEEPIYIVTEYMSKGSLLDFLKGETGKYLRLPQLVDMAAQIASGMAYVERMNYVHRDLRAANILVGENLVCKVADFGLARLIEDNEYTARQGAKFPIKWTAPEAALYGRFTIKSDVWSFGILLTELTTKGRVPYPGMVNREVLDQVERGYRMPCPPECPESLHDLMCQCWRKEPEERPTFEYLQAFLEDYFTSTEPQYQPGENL
Sequence of Receptor tyrosine-protein kinase erbB-2 (P04626 whole entry): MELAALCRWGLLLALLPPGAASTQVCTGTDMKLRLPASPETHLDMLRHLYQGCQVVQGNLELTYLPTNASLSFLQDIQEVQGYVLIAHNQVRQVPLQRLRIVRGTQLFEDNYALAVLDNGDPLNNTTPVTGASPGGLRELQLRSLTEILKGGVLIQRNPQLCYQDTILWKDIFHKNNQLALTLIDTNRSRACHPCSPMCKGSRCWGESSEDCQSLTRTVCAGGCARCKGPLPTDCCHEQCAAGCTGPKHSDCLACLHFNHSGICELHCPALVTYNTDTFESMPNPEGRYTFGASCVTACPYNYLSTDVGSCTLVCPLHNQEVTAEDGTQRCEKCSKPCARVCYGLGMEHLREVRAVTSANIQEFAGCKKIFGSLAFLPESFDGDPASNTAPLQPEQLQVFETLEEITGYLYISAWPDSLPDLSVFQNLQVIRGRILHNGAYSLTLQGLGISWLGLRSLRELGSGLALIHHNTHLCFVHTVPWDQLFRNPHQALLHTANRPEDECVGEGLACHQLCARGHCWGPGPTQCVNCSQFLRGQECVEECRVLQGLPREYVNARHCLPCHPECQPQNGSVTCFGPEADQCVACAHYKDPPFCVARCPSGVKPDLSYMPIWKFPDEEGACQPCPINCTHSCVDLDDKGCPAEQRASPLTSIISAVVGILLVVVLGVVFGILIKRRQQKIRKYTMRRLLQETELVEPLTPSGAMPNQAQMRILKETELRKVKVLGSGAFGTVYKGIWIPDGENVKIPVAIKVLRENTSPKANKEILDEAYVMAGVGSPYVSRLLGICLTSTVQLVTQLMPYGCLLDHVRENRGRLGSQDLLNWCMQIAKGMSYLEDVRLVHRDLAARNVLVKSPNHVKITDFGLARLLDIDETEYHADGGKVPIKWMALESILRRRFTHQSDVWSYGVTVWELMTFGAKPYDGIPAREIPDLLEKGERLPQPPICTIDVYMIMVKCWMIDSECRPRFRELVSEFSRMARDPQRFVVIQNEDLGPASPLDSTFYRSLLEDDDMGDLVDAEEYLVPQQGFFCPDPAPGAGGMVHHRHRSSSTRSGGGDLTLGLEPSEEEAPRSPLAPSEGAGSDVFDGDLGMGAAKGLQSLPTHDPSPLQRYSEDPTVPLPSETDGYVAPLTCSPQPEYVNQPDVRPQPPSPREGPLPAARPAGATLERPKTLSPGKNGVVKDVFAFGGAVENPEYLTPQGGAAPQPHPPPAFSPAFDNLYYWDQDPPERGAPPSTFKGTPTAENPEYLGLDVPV
Sequence of Aurora kinase B (Q96GD4 whole entry): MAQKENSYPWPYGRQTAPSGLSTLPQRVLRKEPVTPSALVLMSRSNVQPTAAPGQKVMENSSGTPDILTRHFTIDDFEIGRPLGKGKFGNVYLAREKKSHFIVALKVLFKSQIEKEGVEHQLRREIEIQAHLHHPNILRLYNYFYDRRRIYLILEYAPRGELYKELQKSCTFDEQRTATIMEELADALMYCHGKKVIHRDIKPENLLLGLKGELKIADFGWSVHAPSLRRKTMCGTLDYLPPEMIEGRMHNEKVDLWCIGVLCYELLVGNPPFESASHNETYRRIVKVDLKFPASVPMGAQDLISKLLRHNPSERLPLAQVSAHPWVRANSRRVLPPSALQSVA
Sequence of Dual specificity mitogen-activated protein kinase kinase 1 (Q02750 whole entry): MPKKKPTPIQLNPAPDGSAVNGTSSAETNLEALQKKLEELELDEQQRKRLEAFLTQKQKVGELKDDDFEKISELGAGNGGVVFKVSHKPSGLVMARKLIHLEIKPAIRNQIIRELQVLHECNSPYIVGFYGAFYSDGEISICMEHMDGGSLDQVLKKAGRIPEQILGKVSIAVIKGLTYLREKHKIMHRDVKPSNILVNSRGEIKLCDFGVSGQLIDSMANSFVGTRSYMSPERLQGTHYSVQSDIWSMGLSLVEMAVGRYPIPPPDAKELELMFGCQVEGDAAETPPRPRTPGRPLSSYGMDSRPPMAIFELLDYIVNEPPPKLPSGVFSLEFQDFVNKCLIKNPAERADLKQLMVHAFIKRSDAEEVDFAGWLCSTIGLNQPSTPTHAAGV

For `CCc1ccc(-c2ccc3c(c2)-c2c(cnn2C)S(=O)(=O)N3C)cc1`, the pIC50 (usually the negative decadic logarithm of the IC50, by convention in mol/L) in [1] is 6.38; in assay [2] it was below 5.00; in assay [3], below 5.00; in assay [4], below 5.00; in [5], below 5.00; in [6], below 5.00. The pIC50 was below 5.00 in assay [7], below 5.00 in assay [8] and 7.11 in assay [9].

Compound `CCc1ccc(-c2ccc3c(c2)-c2c(cnn2CC)S(=O)(=O)N3C)cc1` gave a pIC50 in [9] of 5.68.

`CCc1ccc(-c2ccc3c(c2)-c2nn(C)cc2S(=O)(=O)N3C)cc1`: in [9], the pIC50 was below 4.52.

Turning to `CN1c2ccc(C(=O)Nc3ccc(F)cc3)cc2-c2c(cnn2C)S1(=O)=O`, the pIC50 in assay [9] was below 4.52.

For the compound `CN1c2ccc(NCc3ccc(C(C)(C)C)cc3)cc2-c2c(cnn2C)S1(=O)=O`, the pIC50 in assay [2], in [3], in assay [4], in assay [5], in assay [6] and in assay [7] was below 5.00 each time. The compound also had a pIC50 in [8] below 5.00.

For the compound `CCc1ccc(-c2ccc3c(c2)-c2n[nH]cc2S(=O)(=O)N3C)cc1`, the pIC50 in assay [2] was below 5.00; in assay [4], below 5.00; in [5] it was 5.07; in assay [6], below 5.00; in assay [7], 5.29; in assay [8], below 5.00.
